Data: patent publication US10398713B2, “Compositions and methods for the treatment of neurodegenerative and other diseases” (Glialogix, Inc., priority 2013, dated 2019)
Values belong to the molecule of their own block, whether it stands above or below them.

Legend:
[1] = for Cmax GB: 4.5 mg, pH 2; for AUC / Cmax IB: pH 5.5
[2] = in vivo; conditions: male, Sprague-Dawley, rat, 400 mg/kg
Method: Rats were allowed to eat ad libitum before testing. […] Following drug administration, 200 μl of plasma was collected from each animal at the following time points: 30, 60, 90, 120, 160 and 240 minutes. Plasma samples were snap frozen in liquid N2 and stored at −80° C. until analysis.

[3] = label / literature; cited from earlier work
[4] = system: SOD1 mouse model; conditions: cited from earlier work
[5] = SOD1 mouse model, published results (Shin et al. 2012; Lincecum et al. 2010)

Cmax GB [1]: 154000 ng/mL
AUC [1]: 30,300 min * ug/mL
Cmax IB [1]: 372000 ng/mL
Compound: O=C(O)c1cc(N=Nc2ccc(S(=O)(=O)Nc3ccccn3)cc2)ccc1O [Amorphous sulfasalazine, sulfasalazine]

concentration at 0.5 h [2]: 1490 ng/mL
concentration at 1 h [2]: 1140 ng/mL
concentration at 1.5 h [2]: 1430 ng/mL
concentration at 2 h [2]: 1260 ng/mL
concentration at 3 h [2]: 1030 ng/mL
concentration at 4 h [2]: 850 ng/mL
Cmax GB [1]: 15000 ng/mL
AUC [1]: 22,200 min * ug/mL
Cmax IB [1]: 282000 ng/mL
Compound: O=C(O)c1cc(N=Nc2ccc(S(=O)(=O)Nc3ccccn3)cc2)ccc1O [Crystalline sulfasalazine, sulfasalazine]

Compound: Nc1ccc(S(=O)(=O)Nc2ccccn2)cc1 [Sulfapyridine, sulfapyridine]
bioavailability (share reaching the circulation following oral dosing) [3]: > 70%

Compound: CC(C)Cc1ccc(C(C)C(=O)O)cc1 (stereo not shown) [ibuprofen]
decreased lifespan after onset of neurological disease [4, 5]: 10%

Compound: Nc1nc2ccc(OC(F)(F)F)cc2s1 [riluzole]
increased absolute lifespan ([4]; SOD1 model, Lincecum et al. 2010): 1.6%
increased lifespan after onset of neurological disease [4, 5]: 1%
